Q: For Cc1ccccc1/C=C(\C#N)c1nc2ccccc2[nH]1, which melting point is on record?
A: 210 to 211 °C

Q: Which melting point does the source give for CCC1(CC)OC(=O)C2CCC1(C)OC2(C)C (stereo unspecified) here?
A: 90 °C

Q: With N#CCn1cnc(Cl)c1Cl as the compound, how does the melting point read?
A: 95 to 99 °C

Q: For Cc1ccc(C)n1-c1cc(Cl)c([N+](=O)[O-])cc1Cl, which melting point is on record?
A: 82 to 84 °C

Q: With C=CCn1c(=S)[nH]c2ccccc2c1=O as the compound, how does the melting point read?
A: 206 to 207 °C

Q: With CC12CCC3C(CCC4CC(O)(C#CCl)CCC43C)C1CCC2O (stereo unspecified) as the compound, how does the melting point read?
A: 120 °C

Q: With CC[Si](Cl)(CC)CC as the compound, how does the melting point read?
A: -75 °C

Q: For NC(=S)NCCCc1ccccc1, which melting point is on record?
A: 111 °C

Q: With Oc1ncc(C(F)(F)F)cc1Cl as the compound, how does the melting point read?
A: 157 to 159 °C

Q: With OCC(Br)C(Br)CO (stereo unspecified) as the compound, how does the melting point read?
A: 85 °C

Q: For COc1ccc(/C=N/c2nc(C(F)(F)F)n[nH]2)cc1, which melting point is on record?
A: 171 °C

Q: For CCCCCCCCCCCCCCCCCCCCCCCCCCCCCC(=O)O, which melting point is on record?
A: 93.6 °C

Q: With N#CC(C(=O)OCc1ccccc1)c1cc(C(F)(F)F)ccc1[N+](=O)[O-] (stereo unspecified) as the compound, how does the melting point read?
A: 71 °C

Q: For Clc1ccc(OCCBr)cc1, which melting point is on record?
A: 38 to 39 °C

Q: For O=C(O)C(F)(F)C(F)(F)C(F)(F)C(F)(F)C(F)(C(F)(F)F)C(F)(F)F, which melting point is on record?
A: 13 °C

Q: For Cc1cc(CO)nn1C, which melting point is on record?
A: 50 to 51 °C

Q: For C=CCCCCCCCCCCCCCCCCCCCC, which melting point is on record?
A: 38 °C

Q: For O=S(=O)(Cl)c1cc(Cl)c(O)c(Cl)c1, which melting point is on record?
A: 119 °C

Q: With NC(=S)Nc1cccc2ccccc12 as the compound, how does the melting point read?
A: 193 to 197 °C

Q: For Brc1cccc2cccnc12, which melting point is on record?
A: 58 to 59 °C

Q: For Cc1ccc(-c2cnco2)cc1, which melting point is on record?
A: 78 °C

Q: Which melting point does the source give for CC(C)C[N+](=O)[O-] here?
A: -76.8 °C

Q: With Nc1cc(C(F)(F)F)c(F)cc1Br as the compound, how does the melting point read?
A: 27 °C

Q: Which melting point does the source give for CC(=O)c1c(C)c([N+](=O)[O-])c(C(C)(C)C)c([N+](=O)[O-])c1C here?
A: 136 °C

Q: With CSC(=NC#N)SC as the compound, how does the melting point read?
A: 54 °C

Q: With CC1(C)CC(=O)C=C(C(=O)O)O1 as the compound, how does the melting point read?
A: 167 to 171 °C

Q: For Clc1ccc(-c2cc(Cl)c(Cl)c(Cl)c2Cl)cc1, which melting point is on record?
A: 98 °C

Q: With COc1ccc(C(=O)C(C#N)=C(SC)SC)cc1 as the compound, how does the melting point read?
A: 60 to 62 °C

Q: With CCCCC(C(N)=O)n1nc2ccccc2n1 (stereo unspecified) as the compound, how does the melting point read?
A: 102 °C

Q: For CCOC(CNC(=O)C(N)=O)OCC, which melting point is on record?
A: 138 to 140 °C

Q: Which melting point does the source give for O=C(c1ccccc1)c1cccnc1 here?
A: 38 °C

Q: With Cc1nonc1C as the compound, how does the melting point read?
A: -7 °C

Q: Which melting point does the source give for Cc1ccc2ccc3ccc(C)nc3c2n1 here?
A: 160 °C

Q: With CC(NC(=O)OC(C)(C)C)C(=O)N1CCCC1C(=O)OCc1ccccc1 (stereo unspecified) as the compound, how does the melting point read?
A: 68 to 70 °C

Q: For O=C1CCCCCCCCC1=O, which melting point is on record?
A: 40.5 °C

Q: For CC(C)CCBr, which melting point is on record?
A: -112 °C

Q: Which melting point does the source give for CC1(C)N=C(N)N=C(N)N1c1ccc(Cl)cc1 here?
A: 146 °C

Q: With Fc1ccc(C(Br)(c2ccc(F)cc2)c2ccc(F)cc2)cc1 as the compound, how does the melting point read?
A: 109 °C

Q: With O=C(O)C(Cc1cc(I)c(O)c(I)c1)c1ccccc1 (stereo unspecified) as the compound, how does the melting point read?
A: 164 °C

Q: With Cc1cc(O)c(C)c(O)c1 as the compound, how does the melting point read?
A: 161 to 164 °C

Q: For OC1COC2C(O)COC12 (stereo unspecified), which melting point is on record?
A: 88 °C

Q: Which melting point does the source give for CSc1nc(-c2ccc(C)cc2)nc(N)c1C#N here?
A: 213 to 214 °C

Q: Which melting point does the source give for Nc1ccc([N+](=O)[O-])c(C(=O)O)c1 here?
A: 234 to 242 °C

Q: With C=C(C)C1Cc2c(cc(O)c3c2OC2COc4cc(OC)c(OC)cc4C2C3=O)O1 (stereo unspecified) as the compound, how does the melting point read?
A: 195 °C

Q: Which melting point does the source give for NC(=O)N1c2ccccc2CC(=O)c2ccccc21 here?
A: 216 °C

Q: Which melting point does the source give for O=[N+]([O-])c1ccnc(Cl)c1 here?
A: 52 °C

Q: Which melting point does the source give for O=S(=O)(O)CCNC(CO)(CO)CO here?
A: 223 to 225 °C

Q: For O=C(c1ccccc1)c1ccc(F)c(C(F)(F)F)c1, which melting point is on record?
A: 46 °C

Q: Which melting point does the source give for O=c1[nH]c(=O)n(C2CC(O)C(CO)O2)cc1Br (stereo unspecified) here?
A: 192 °C

Q: For O=C1[C@@H](Oc2ccccc2)[C@@H](c2ccccc2)N1[C@@H](Sc1ccccc1)c1ccccc1, which melting point is on record?
A: 194 °C

Q: With COc1ccc(C=C(CC(=O)O)C(=O)O)cc1 as the compound, how does the melting point read?
A: 186 to 188 °C

Q: With CC(=O)C1(O)CCC2C3CCC4CC(O)CCC4(C)C3CCC21C (stereo unspecified) as the compound, how does the melting point read?
A: 265 °C

Q: With CC1(C)C(=O)OC2=C(CCCC2)C1c1ccccc1 (stereo unspecified) as the compound, how does the melting point read?
A: 95 °C

Q: Which melting point does the source give for O=C(Oc1c(F)c(F)c(F)c(F)c1F)c1cc(C(F)(F)F)ccc1N1CCOCC1 here?
A: 91 to 93 °C

Q: With CCCCc1ccc(/N=N/c2ccc(OCCC)cc2)cc1 as the compound, how does the melting point read?
A: 66 to 68 °C

Q: For CC(C)(C)OC(=O)N1CC(=O)C1, which melting point is on record?
A: 51 °C

Q: Which melting point does the source give for O=C(OC1C(=O)OC(=O)C1OC(=O)c1ccccc1)c1ccccc1 (stereo unspecified) here?
A: 174 °C

Q: Which melting point does the source give for COc1ccc(C(=O)c2ccccc2O)c(O)c1 here?
A: 68 °C

Q: Which melting point does the source give for CCOC(=O)c1[nH]c(C)c(C=O)c1C here?
A: 145 to 146 °C

Q: Which melting point does the source give for CCN(CCO)c1ccc(N=Nc2ccc([N+](=O)[O-])cc2)cc1 here?
A: 161 °C

Q: For Nc1ccc(-c2cn3c(n2)SCC3)cc1, which melting point is on record?
A: 225 to 226 °C

Q: Which melting point does the source give for CCCCCCC(=O)CCCC here?
A: 2 °C

Q: Which melting point does the source give for CCCOC(=O)c1cc(O)c(O)c(O)c1 here?
A: 148 °C

Q: Which melting point does the source give for CC1=Nc2ccccc2N=C(C)C1 here?
A: 193 °C

Q: For CC(C)(CC(=O)O)c1ccccc1, which melting point is on record?
A: 60 °C

Q: Which melting point does the source give for CCO[Si](Cl)(Cl)OCC here?
A: -130 °C

Q: With NNc1nc(N)nc(-c2ccccn2)n1 as the compound, how does the melting point read?
A: 287 to 289 °C

Q: Which melting point does the source give for CCOC(=O)c1nn(-c2ccc(C)cc2)c(C)c1C(=O)c1noc(-c2cccc3ccccc23)c1S(=O)(=O)c1ccccc1 here?
A: 173 °C

Q: With FC(F)(F)C(Cl)(Cl)Cl as the compound, how does the melting point read?
A: 14.2 °C

Q: Which melting point does the source give for OCC1(O)CC(O)C(O)CO1 (stereo unspecified) here?
A: 111 °C

Q: Which melting point does the source give for Nc1nn2c(-c3ccccc3)cc(=O)[nH]c2c1/N=N/c1ccccc1 here?
A: 265 °C

Q: With Nc1c2c(nc3ccccc13)CCCC2O (stereo unspecified) as the compound, how does the melting point read?
A: 245 °C

Q: With CC(=O)n1nc2oc3ccccc3cc-2c1=O as the compound, how does the melting point read?
A: 170 °C

Q: Which melting point does the source give for Cc1cc(C)c(C2(C)CC(C(=O)c3cc4ccccc4o3)C2)c(C)c1 (stereo unspecified) here?
A: 147 to 148 °C

Q: Which melting point does the source give for BrC(=C(c1ccccc1)c1ccccc1)c1ccccc1 here?
A: 115 to 117 °C

Q: With CC(C)(C)C(=O)Nc1ncccc1C=O as the compound, how does the melting point read?
A: 87 to 91 °C

Q: Which melting point does the source give for CN(C)CCC(c1ccc(Br)cc1)c1ccccn1 (stereo unspecified) here?
A: < 25 °C

Q: Which melting point does the source give for O=C(Oc1ccc(Cl)cc1)c1c(Cl)c(Cl)c(C(=O)Oc2ccc(Cl)cc2)c(Cl)c1Cl here?
A: 244 °C

Q: Which melting point does the source give for Nc1ccc(CC(=O)c2ccc(N)cc2)cc1 here?
A: 145 °C

Q: For CC(C)(C)[C@H](N)CO, which melting point is on record?
A: 30 to 34 °C

Q: For O=[N+]([O-])c1cccc(S(=O)(=O)NCCNS(=O)(=O)c2cccc([N+](=O)[O-])c2)c1, which melting point is on record?
A: 190 °C

Q: With Ic1cn(C(c2ccccc2)(c2ccccc2)c2ccccc2)cn1 as the compound, how does the melting point read?
A: 224 to 225 °C

Q: For O=Cc1cccn1-c1ccc(Cl)cc1, which melting point is on record?
A: 92 to 96 °C

Q: With COc1cc(C(=O)NCc2ccc(OCCN(C)C)cc2)cc(OC)c1OC as the compound, how does the melting point read?
A: 189 °C

Q: Which melting point does the source give for COc1cc(/C=N/c2ccccc2)ccc1O here?
A: 140 °C

Q: Which melting point does the source give for c1ccc2c(c1)ccc1[nH]c3ccccc3c12 here?
A: 134 °C

Q: With O=c1oc2ccccc2c(O)c1C1CCCc2ccccc21 (stereo unspecified) as the compound, how does the melting point read?
A: 174 °C

Q: Which melting point does the source give for COc1c(OC)c(OC(C)=O)c2cc(C#N)ccc2c1OC(C)=O here?
A: 124 °C

Q: For CCCCCCCCCCC(O)CC (stereo unspecified), which melting point is on record?
A: 32 °C

Q: For CC(C)(C)c1cc(N)[nH]n1, which melting point is on record?
A: 60 to 62 °C

Q: With c1ccc(C2CCc3ccccc3O2)cc1 (stereo unspecified) as the compound, how does the melting point read?
A: 46.3 °C
